Patent US8410284B2, “Cyclic benzimidazole derivatives useful as anti-diabetic agents” (Merck Sharp & Dohme Corp, priority 2008, dated 2013)

Biological target: recombinant human AMPK complex 1 (containing α1β1γ1) (Homo sapiens, UniProt Q13131+Q9Y478)
Assay: In vitro AMPK activation assay (AMPKSAMSF)
Type: biochemical
Settings: recombinant human AMPK complex 1 (α1β1γ1); for Emax: read-out: maximum AMP activation; for % Maximum AMP Activation of human AMPK Complex 1: basal activity subtracted
Procedure: AMPKSAMSF (In Vitro AMPK Activation Assay)
The recombinant human AMPK complex 1 (containing α1β1γ1) was obtained from baculovirus expression system. Recombinant viruses were generated by cotransfection of AMPK/pBacPak9 clones with Baculogold baculovirus DNA (Pharmingen) in spodoptera frugiperda 21 cells according to the manufacturer's instructions. Each round of virus amplification was performed for 5 days in Grace's medium containing 10% serum. Virus that had been subjected to three rounds of amplification was used for all protein production procedures. To express the AMPK complex, sf21 cells were adapted to serum free medium (SF900 II, Invitrogen) by sequential dilution from serum containing stocks into SF900 II medium and maintained in shaker flasks at 90 rpm at 27° C. The recombinant AMPK enzyme complex was produced by triple infection, one recombinant virus for each of the subunits, in sf21 cells under serum free conditions. Cells were infected in log phase, 1×10^6 cells/ml, at a multiplicity of infection of ˜5. Cells were harvested by centrifugation at 10,000×g for 15 minutes after 72 hours of infection with viruses. The insect cell pellet from 2 liters of culture was resuspended in 50 ml lysis buffer (20 mM Tris-HCl, 50 mM NaCl, 50 mM NaF, 30 mM Na PPi, 0.25 M sucrose, 10 mM ZnCl2, 2 mM DTT, 0.4 mg/ml digitonin) and subjected to two cycles of freeze-thaw lysis in a dry-ice ethanol bath. Insoluble material was removed by centrifugation at 10,000×g and the supernatant was fractionated with use of polyethylene glycol (PEG). The protein fraction precipitating between 2.5 and 6% PEG was used for further purification using a Blue-Sepharose step (Zhou et al, J. Clin. Invest. 108, 1167-1174, 2001).
The total in vitro AMPK activation assay volume is 50 μl in a 96-well plate. The reaction mixture contained 100 μM ATP (0.5 μCi ^33P-ATP per reaction), and 50 μM SAMS (HMRSAMSGLHLVKRR) in a buffer (20 mM HEPES, pH 7.0, 5 mM MgCl2, 0.01% Brij35). The reaction was initiated with addition of the enzyme. After 30-minute incubation at 30° C., the reaction was stopped by addition of 80 μl 1% H3PO4. Aliquots (100 μl) were transferred to 96-well MultiScreen plates (MAPHNOB50; Millipore Corp., Bedford, Mass., USA). The plate was washed three times with 1% H3PO4 followed by detection in a Top-count. The counts per minute from the basal activity (the reaction without activator) was subtracted from each well and the data were expressed as % maximum AMP activation followed by EC50 calculation.

Sequence of recombinant human AMPK complex 1 (containing α1β1γ1) (Q13131 whole entry): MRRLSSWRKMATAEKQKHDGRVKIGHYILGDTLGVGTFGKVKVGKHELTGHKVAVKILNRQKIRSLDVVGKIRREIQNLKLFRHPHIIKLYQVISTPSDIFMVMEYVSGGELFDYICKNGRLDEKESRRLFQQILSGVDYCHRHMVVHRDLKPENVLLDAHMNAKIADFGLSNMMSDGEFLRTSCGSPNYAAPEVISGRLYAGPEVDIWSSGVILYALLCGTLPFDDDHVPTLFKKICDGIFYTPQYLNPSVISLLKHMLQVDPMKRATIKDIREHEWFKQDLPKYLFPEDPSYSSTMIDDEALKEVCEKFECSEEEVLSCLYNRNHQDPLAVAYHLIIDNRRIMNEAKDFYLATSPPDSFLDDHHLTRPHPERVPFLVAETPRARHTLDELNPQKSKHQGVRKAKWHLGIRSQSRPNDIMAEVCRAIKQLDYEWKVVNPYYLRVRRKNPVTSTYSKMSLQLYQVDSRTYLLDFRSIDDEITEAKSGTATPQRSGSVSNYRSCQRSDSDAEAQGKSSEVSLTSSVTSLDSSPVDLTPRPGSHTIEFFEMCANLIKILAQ
Sequence of recombinant human AMPK complex 1 (containing α1β1γ1) (Q9Y478 whole entry): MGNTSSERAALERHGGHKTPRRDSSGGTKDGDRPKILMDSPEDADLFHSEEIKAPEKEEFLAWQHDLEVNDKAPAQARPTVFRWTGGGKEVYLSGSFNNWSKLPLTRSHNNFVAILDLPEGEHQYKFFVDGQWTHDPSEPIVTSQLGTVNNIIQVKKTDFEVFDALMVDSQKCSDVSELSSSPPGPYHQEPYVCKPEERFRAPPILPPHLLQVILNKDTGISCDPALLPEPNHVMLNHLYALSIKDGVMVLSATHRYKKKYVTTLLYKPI
Sequence of recombinant human AMPK complex 1 (containing α1β1γ1) (P54619 whole entry partner): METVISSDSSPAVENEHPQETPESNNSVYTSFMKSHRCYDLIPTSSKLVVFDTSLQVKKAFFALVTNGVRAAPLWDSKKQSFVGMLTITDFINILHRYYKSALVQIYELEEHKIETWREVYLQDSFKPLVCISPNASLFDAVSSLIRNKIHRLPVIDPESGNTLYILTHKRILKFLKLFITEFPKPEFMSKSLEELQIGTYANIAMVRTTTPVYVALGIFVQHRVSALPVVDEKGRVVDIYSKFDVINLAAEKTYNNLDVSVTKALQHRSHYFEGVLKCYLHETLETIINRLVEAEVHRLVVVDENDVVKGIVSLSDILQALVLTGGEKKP

## CCOC(=O)CNP(=O)(NCC(=O)OCC)c1cc(Oc2nc3cc(-c4ccc5c(ccn5C)c4)c(Cl)cc3[nH]2)ccc1C [Example 27, {[6-Chloro-5-(1-methyl-1H-indol-5-yl)-1-H-benzimidazol-2-yl]oxo}-4-methylphen-3-ylphosphono-bis-2-amino-ethanoic acid ethyl ester]
  Emax: > 80%

## O=P1(c2cccc(Oc3nc4cc(-c5ccc(-c6ccccc6)cc5)c(Cl)cc4[nH]3)c2)OCCC(c2cccc(Cl)c2)O1 (stereo not drawn) [Example 24, Cis-5-Biphenyl-4-yl-6-chloro-2-[3-4-(3-chloro-phenyl)-2-oxo-2-lambda*5*-[1,3,2]dioxaphosphinan-2-ylphenoxy]-1H-benzoimidazole]
  Emax: > 80%

## Cc1ccc(Oc2nc3cc(C#Cc4ccccc4)c(Cl)cc3[nH]2)cc1P(=O)(O)O [Example 3, ((6-Chloro-5-phenylethynyl-1H-benzimidazol-2-yl)oxo)-4-methylphen-3-ylphosphonic acid]
  EC50: 0.7 nM
  % Maximum AMP Activation of human AMPK Complex 1: 192%
  Emax: > 80%

## O=P1(c2cccc(Oc3nc4cc(-c5ccc(-c6ccccc6)cc5)c(Cl)cc4[nH]3)c2)OCCC(c2ccncc2)O1 [Example 26, Cis-5-Biphenyl-4-yl-6-chloro-2-[3-((S)-2-oxo-4-pyridin-4-yl-2lambda*5*-[1,3,2]dioxophosphinan-2-yl)-phenoxy]-1H-benzoimidazole]
  Emax: > 80%

## CCOP(C)(=O)c1cccc(Oc2nc3cc(-c4ccc(-c5ccccc5)cc4)c(Cl)cc3[nH]2)c1 (stereo not drawn) [Example 17, [3-(5 Biphenyl-4-yl-6-chloro-1H-benzoimidazol-2-yloxy)-phenyl]-methyl-phosphinic acid ethyl ester]
  Emax: > 80%

## Cc1ccc(Oc2nc3cc(-c4ccc(C5CCCCC5)cc4)c(Cl)cc3[nH]2)cc1P(=O)(O)O [Example 5, {5-[6-Chloro-5-(4-cyclohexyl-phenyl)-1H-benzoimidazol-2-yloxy]-2-methylphenyl}phosphonic acid]
  EC50: 4.9 nM
  % Maximum AMP Activation of human AMPK Complex 1: 257%
  Emax: > 80%

## O=[P@@]1(c2cccc(Oc3nc4cc(-c5ccc(-c6ccccc6)cc5)c(Cl)cc4[nH]3)c2)OCC[C@@H](c2cccc(Cl)c2)O1 (relative stereo) [Example 23, Trans-5-Biphenyl-4-yl-6-chloro-2-[3-4-(3-chloro-phenyl)-2-oxo-2-lambda*5*-[1,3,2]dioxaphosphinan-2-ylphenoxy]-1H-benzoimidazole]
  Emax: > 80%

## Cc1ccc(Oc2nc3cc(-c4ccc(-c5ccccc5)cc4)c(Cl)cc3[nH]2)cc1P(=O)(O)O [Example 1, ((5-(4-Biphenyl)-6-chloro-1H-benzimidazol-2-yl)oxo)-4-methylphen-3-ylphosphonic acid]
  EC50: 0.9 nM
  % Maximum AMP Activation of human AMPK Complex 1: 175%
  Emax: > 80%

## O=P(O)(O)c1cccc(C(F)(F)c2nc3cc(-c4ccc(-c5ccccc5)cc4)c(Cl)cc3[nH]2)c1 [Example 15, {3-[(5-biphenyl-4-yl-6-chloro-1H-benzimidazol-2-yl)(difluoro)methyl]phenyl}phosphonic acid]
  Emax: > 80%

## Cc1ccc(Oc2nc3cc(-c4ccc(N5CCCC5)cc4)c(Cl)cc3[nH]2)cc1P(=O)(O)O [Example 6, {5-[6-Chloro-5-(4-pyrrolidin-1-yl-phenyl)-1H-benzoimidazol-2-yloxy]-2-methyl-phenyl}phosphonic acid]
  EC50: 1.1 nM
  % Maximum AMP Activation of human AMPK Complex 1: 223%
  Emax: > 80%

## O=P(O)(O)c1cncc(Oc2nc3cc(-c4ccc(-c5ccccc5)cc4)c(Cl)cc3[nH]2)c1 [Example 12, [5-(5-Biphenyl-4-yl-6-chloro-1H-benzoimidazol-2-yloxy)-pyridin-3-yl]-phoshponic acid]
  Emax: > 80%

## Cc1ccc(Oc2nc3cc(-c4ccc(N5CCOCC5)cc4)c(Cl)cc3[nH]2)cc1P(=O)(O)O [Example 4, {5-[6-Chloro-5-(4-morpholin-4-yl-phenyl)-1H-benzoimidazol-2-yloxy]-2-methylphenyl}-phosphonic acid]
  Emax: > 80%

## Cc1ccc(Oc2nc3cc(-c4ccc(-c5ccccc5)cc4)c(Cl)cc3[nH]2)cc1[P@@]1(=O)OCC[C@@H](c2ccncc2)O1 (relative stereo) [Example 22, Cis-5-Biphenyl-4-yl-6-chloro-2-[4-methyl-3-(2-oxo-4-pyridin-4-yl-2lambda*5*-[1,3,2]dioxophosphinan-2-yl)-phenoxy]-1H-benzoimidazole]
  Emax: > 80%

## Cc1ccc(Oc2nc3cc(-c4ccc5c(ccn5C)c4)c(Cl)cc3[nH]2)cc1P(=O)(O)O [Example 9, 5-(5-chloro-6-(1-methyl-1H-indol-5-yl)-1H-benzo[d]imidazol-2-yloxy)-2-methylphenylphosphonic acid]
  Emax: > 80%

## COc1ccc(C#Cc2cc3nc(Oc4ccc(C)c(P(=O)(O)O)c4)[nH]c3cc2Cl)cc1 [Example 10, 5-(5-chloro-6-(2-(4-methoxyphenyl)ethynyl)-1H-benzo[d]imidazol-2-yloxy)-2-methylphenylphosphonic acid]
  Emax: > 80%

## CP(=O)(O)c1cccc(Oc2nc3cc(-c4ccc(-c5ccccc5)cc4)c(Cl)cc3[nH]2)c1 [Example 18, [3-(5-Biphenyl-4-yl-6-chloro-1H-benzoimidazol-2-yloxy)-phenyl]-methyl-phosphinic acid]
  Emax: > 80%

## CCOC(=O)CNP(=O)(NCC(=O)OCC)c1cc(Oc2nc3cc(-c4ccc(C5CCCCC5)cc4)c(Cl)cc3[nH]2)ccc1C [Example 28, {[6-Chloro-5-(4-cyclohexylphenyl)-1H-benzoimidazol-2-yl]oxo}-4-methylphen-3-ylphosphono-bis-2-amino-ethanoic acid ethyl ester]
  Emax: > 80%

## Cc1ccc(Oc2nc3cc(-c4ccc(N5CCOCC5)cc4)c(Cl)cc3[nH]2)cc1P(=O)(O)O [Example 8, 5-(5-chloro-6-(4-morpholinophenyl)-1H-benzo[d]imidazol-2-yloxy)-2-methylphenylphosphonic acid]
  EC50: 1.2 nM
  % Maximum AMP Activation of human AMPK Complex 1: 224%

## O=C(c1cccc(P(=O)(O)O)c1)c1nc2cc(-c3ccc(-c4ccccc4)cc3)c(Cl)cc2[nH]1 [Example 14, {3-[(5-biphenyl-4-yl-6-chloro-1H-benzimidazol-2-yl)carbonyl]phenyl}phosphonic acid]
  Emax: > 80%

## O=[P@@]1(c2cccc(Oc3nc4cc(-c5ccc(-c6ccccc6)cc5)c(Cl)cc4[nH]3)c2)OCC[C@@H](c2ccncc2)O1 [Example 25, Trans-5-Biphenyl-4-yl-6-chloro-2-trans-[3-((S)-2-oxo-4-pyridin-4-yl-2lambda*5*-[1,3,2]dioxophosphinan-2-yl)-phenoxy]-1H-benzoimidazole]
  Emax: > 80%

## Cn1ccc2cc(-c3cc4nc(Oc5cccc(P(=O)(O)O)c5)[nH]c4cc3Cl)ccc21 [Example 16, (3-{[6-chloro-5-(1-methyl-1H-indol-5-yl)-1H-benzimidazol-2-yl]oxy}phenyl)phosphonic acid]
  EC50: 0.6 nM
  % Maximum AMP Activation of human AMPK Complex 1: 173%
  Emax: > 80%

## Cc1ccc(Oc2nc3cc(-c4ccc(-c5ccccc5)cc4)c(Cl)cc3[nH]2)cc1[P@@]1(=O)OCC[C@@H](c2cccc(Cl)c2)O1 (relative stereo) [Example 20, Cis-5-Biphenyl-4-yl-6-chloro-2-[3-[4-(3-chloro-phenyl)-2-oxo-2-lambda*5*-[1,3,2]dioxaphosphinan-2-yl]4-methyl-phenoxy]-1H-benzoimidazole]
  Emax: > 80%

## O=P(O)(O)c1cccc(Oc2nc3cc(-c4ccc(-c5ccccc5)cc4)c(F)cc3[nH]2)c1 [Example 13, {3-[(5-biphenyl-4-yl-6-fluoro-1H-benzimidazol-2-yl)oxy]phenyl}phosphonic acid]
  Emax: > 80%

## O=P(O)(O)c1cccc(Oc2nc3cc(-c4ccc(N5CCOCC5)cc4)c(Cl)cc3[nH]2)c1 [Example 7, {3-[6-Chloro-5-(4-morpholin-4-yl-phenyl)-1H-benzoimidazol-2-yloxy]phenyl}phosphonic acid]
  Emax: > 80%

## Cc1ccc(Oc2nc3cc(-c4ccc(-c5ccccc5)cc4)c(Cl)cc3[nH]2)cc1[P@@]1(=O)OCC[C@H](c2cccc(Cl)c2)O1 (relative stereo) [Example 19, Trans-5-Biphenyl-4-yl-6-chloro-2-[3-[4-(3-chloro-phenyl)-2-oxo-2-lambda*5*-[1,3,2]dioxaphosphinan-2-yl]-4-methyl-phenoxy]-1H-benzoimidazole]
  Emax: > 80%
